Activity calls are given as the source filed them. The calls are words filed in the database; no cut-off is given here.
Tests used:
[1] = biological target: ELAV-like protein 1 (Homo sapiens) (UniProt Q15717); experiment: Binding affinity to HuR (unknown origin) assessed as interaction of ring A and protons 16 with hydrophobic residues and projection of ring B and its methoxy group with polar residues of protein at 400 uM in H2O:D2O (90:10) buffer by DEEP-STD NMR analysis
[2] = biological target: ELAV-like protein 1 (Homo sapiens) (UniProt Q15717); experiment: Binding affinity to HuR (unknown origin) assessed as negative STD factor by measuring interaction of protons 3, 9-10 and 16 with protein at 400 uM in 100% D2O buffer by DEEP-STD NMR analysis
[3] = biological target: ELAV-like protein 1 (Homo sapiens) (UniProt Q15717); experiment: Binding affinity to HuR (unknown origin) assessed as positive STD factor by measuring interaction of protons of ring B and its methoxy group with protein at 400 uM in 100% D2O buffer by DEEP-STD NMR analysis
[4] = biological target: ELAV-like protein 1 (Homo sapiens) (UniProt Q15717); experiment: Binding affinity to HuR (unknown origin) assessed as interaction of ring A and protons 5 and 3 with apolar residues and projection of protons 16 and 9-10 with polar residues of protein at 400 uM in H2O:D2O (90:10) buffer by DEEP-STD NMR analysis

Chain of ELAV-like protein 1 (Homo sapiens) (Q15717 whole entry): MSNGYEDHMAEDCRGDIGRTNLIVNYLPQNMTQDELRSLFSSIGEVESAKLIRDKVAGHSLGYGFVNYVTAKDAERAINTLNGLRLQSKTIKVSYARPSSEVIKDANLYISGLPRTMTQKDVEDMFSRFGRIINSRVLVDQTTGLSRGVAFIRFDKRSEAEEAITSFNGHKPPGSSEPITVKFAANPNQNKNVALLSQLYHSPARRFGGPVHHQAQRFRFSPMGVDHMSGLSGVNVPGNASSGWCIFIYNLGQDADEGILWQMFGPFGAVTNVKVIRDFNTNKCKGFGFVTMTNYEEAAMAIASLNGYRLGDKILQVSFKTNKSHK

| Activity [1] | Activity [2] | Activity [3] | Activity [4] | Compound |
| --- | --- | --- | --- | --- |
| Active | Active | – | – | COc1cc(OC)cc([C@H]2[C@H](C(=O)NCCNCc3ccccc3)CCC(=O)N2CC(C)C)c1 |
| – | – | Active | Active | COc1cc(OC)cc([C@@H]2[C@@H](C(=O)NCCNCc3ccccc3)CCC(=O)N2CC(C)C)c1 |

Reference: ChEMBL document CHEMBL4613306, “BOPC1 Enantiomers Preparation and HuR Interaction Study. From Molecular Modeling to a Curious DEEP-STD NMR Application” (ACS Med Chem Lett, 2020)
